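Growth conditions: 96-well plates. Treatment: test compound, 48 hours, 5 concentrations. Analysis: linear interpolation between bracketing concentrations; unreached endpoints set to highest concentration. Definition used: TGI = concentration required for complete inhibition of growth.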
Experiments:
Test in all cases: DTP human tumour cell line panel, 48 h
[1] = tested on: 786-0 renal
[2] = tested on: A498 renal
[3] = tested on: A549 NSCLC
[4] = tested on: ACHN renal
[5] = tested on: CAKI-1 renal
[6] = tested on: CCRF-CEM leukemia
[7] = tested on: COLO 205 colon
[8] = tested on: DLD-1 colon
[9] = tested on: DMS 114 small cell lung
[10] = tested on: DMS 273 small cell lung
[11] = tested on: EKVX NSCLC
[12] = tested on: HCC-2998 colon
[13] = tested on: HCT-116 colon
[14] = tested on: HCT-15 colon
[15] = tested on: HL-60(TB) leukemia
[16] = tested on: HOP-62 NSCLC
[17] = tested on: HOP-92 NSCLC
[18] = tested on: HT29 colon
[19] = tested on: IGROV1 ovarian
[20] = tested on: K-562 leukemia
[21] = tested on: KM12 colon
[22] = tested on: KM20L2 colon
[23] = tested on: LOX IMVI melanoma
[24] = tested on: LXFL 529 NSCLC
[25] = tested on: M14 melanoma
[26] = tested on: M19-MEL melanoma
[27] = tested on: MALME-3M melanoma
[28] = tested on: MOLT-4 leukemia
[29] = tested on: NCI-H226 lung
[30] = tested on: NCI-H23 lung
[31] = tested on: NCI-H460 lung
[32] = tested on: NCI-H522 lung
[33] = tested on: OVCAR-3 ovarian
[34] = tested on: OVCAR-4 ovarian
[35] = tested on: OVCAR-5 ovarian
[36] = tested on: OVCAR-8 ovarian
[37] = tested on: RPMI-8226 leukemia
[38] = tested on: RXF 393 renal
[39] = tested on: SF-295 CNS
[40] = tested on: SF-539 CNS
[41] = tested on: SK-MEL-2 melanoma
[42] = tested on: SK-MEL-28 melanoma
[43] = tested on: SK-MEL-5 melanoma
[44] = tested on: SK-OV-3 ovarian
[45] = tested on: SN12C renal
[46] = tested on: SNB-19 CNS
[47] = tested on: SNB-75 CNS
[48] = tested on: SNB-78 CNS
[49] = tested on: SR leukemia
[50] = tested on: SW-620 colon
[51] = tested on: TK-10 renal
[52] = tested on: U251 CNS
[53] = tested on: UACC-257 melanoma
[54] = tested on: UACC-62 melanoma
[55] = tested on: UO-31 renal
[56] = tested on: XF 498 CNS

Measured: TGI

C=CC1(CC)/C(=N\O)C(CC)(CC)C(=O)N1O (stereo unspecified)
> 100 µM: all assays above

Source: PubChem BioAssay (NCI)
